# Assays:
# [1] = test system: Jurkat Clone E6-1 human T lymphoblast cells; assay: eGFP mRNA transfection, Jurkat cells (96-well); type: cell-based; settings: co-lipid DOPE, ratio compound/co-lipid 1/2; 150 ng eGFP mRNA, 1 μL of 1 mM formulation; 24 h, flow cytometry
# Experimental: Jurkat Clone E6-1 (ATCC® TIB-152™) human T lymphoblast cells were grown in RPMI-1640 (LONZA) with 10% of FBS (EUROBIO) and supplemented with 2 mM Glutamine (LONZA), 100 U/mL of penicillin and 100 μg/mL of streptomycin (LONZA) at 37° C. in a 5% CO2 in air atmosphere.
# (§1) mRNA eGFP (996 nt, reference L-6101) from TriLink Technologies was used for the in vitro transfection experiments and expressed enhanced green fluorescent protein which is a common reporter gene (eGFP). This mRNA was capped with a Cap 0, polyadenylated and modified with 5-methylcytidine and pseudo-uridine.
# (§2) One day before transfection, Caco-2, THP-1 or BJ Cells were seeded at 10 000, 25 000, or 5 000 cells per well (96-well plate format), respectively, in 125 μL of their respective complete medium and incubated at 37° C. in a 5% CO2 in air atmosphere. For Jurkat cells, 25 000 cells were seeded per well prior transfection. On the day of transfection 150 ng of mRNA was added in 11.5 μL of 5% glucose solution, mixed with a vortex and incubated for 5 minutes at rt. Then, 1 μL of 1 mM cationic liposomal formulation was added onto the diluted mRNA, mixed with a vortex and incubated for 15 minutes at rt. The formulated mRNA solution (12.5 μL) was added into the well and the plate was incubated for 24 hours at 37° C. in a 5% CO2 in air atmosphere.
# (§3) For the GFP expression analysis, the cell culture medium was removed for the adherent cells and 50 μL of trypsin-EDTA (1×, Lonza) was added and the plate was incubated for 5 minutes at 37° C. 150 μL of complete medium were added to neutralize the trypsin, and the GFP expression was analysed (2000 events) by flow cytometry (Exc 488 nm, Em 520 nm) using a Guava easyCyte 6HT cytometer (Millipore).
# (§4) All these new liposomal formulations (Table 1) were assessed to deliver mRNA expressing an enhanced green fluorescent protein (eGFP) as reporter gene in order to determine the gene expression and the transfection efficiency (Table 2). mRNA eGFP capped with a Cap 0 in 5′-end, polyadenylated in 3′-end and modified with 5-methylcytidine and pseudo-uridine was used in the transfection assay. The transfection assay was performed as described in the Experimental section where 150 ng of mRNA eGFP was complexed with 1 μL of 1 mM cationic liposomal formulations in a 5% glucose solution before the addition on the cells. One day post-transfection, the eGFP expression was analyzed by flow cytometry to determine the percentage of transfection. Four different cell lines were used in this assay from easy to transfect cells to hard to transfect cells with plasmid DNA, including human BJ skin fibroblast cells, THP-1 human peripheral blood monocytes, Caco-2 human colon epithelial cells and Jurkat Clone E6-1 human T lymphoblast cells, respectively.
# [2] = test system: Caco-2 human colon epithelial cells; assay: eGFP mRNA transfection, Caco-2 cells (96-well); type: cell-based; settings: for Transfection efficiency (eGFP %) CaCO2: co-lipid DOPE, ratio 1/2, 150 ng eGFP mRNA, 24 h
# Experimental: Caco-2 (ATCC® HTB-37™) human colon epithelial cells were grown in DMEM 4.5 g/L glucose with 20% FBS supplemented with 1% non-essential amino acids, 1 mM sodium pyruvate, 2 mM glutamine and 100 U/mL of penicillin and 100 μg/mL of streptomycin at 37° C. in a 5% CO2 in air atmosphere.
# as §1, §2, §3, §4
# [3] = test system: THP-1 human peripheral blood monocyte cells; assay: eGFP mRNA transfection, THP-1 cells (96-well); type: cell-based; settings: co-lipid DOPE, ratio 1/2; 150 ng eGFP mRNA; 24 h
# Experimental: THP-1 (ATCC® TIB-202™) human peripheral blood monocyte cells were grown in RPMI-1640 with 10% FBS and supplemented with 10 mM HEPES buffer, 1 mM sodium pyruvate, 0.05 mM 2-mercaptoethanol, 2 mM glutamine, 100 U/mL of penicillin and 100 μg/mL of streptomycin at 37° C. in a 5% CO2 in air atmosphere.
# as §1, §2, §3, §4
# [4] = test system: BJ human skin fibroblast cells; assay: eGFP mRNA transfection, BJ cells (96-well); type: cell-based; settings: co-lipid DOPE, ratio 1/2; 150 ng eGFP mRNA; 24 h
# Experimental: BJ (ATCC® CRL-2522™) human skin fibroblast cells were grown in Eagle's Minimum Essential Medium with 10% FBS and supplemented with 1% non-essential amino acids, 1 mM sodium pyruvate, 2 mM glutamine and 100 U/mL of penicillin and 100 μg/mL of streptomycin at 37° C. in a 5% CO2 in air atmosphere.
# as §1, §2, §3, §4
# [5] = test system: BJ, THP-1, Caco-2 and Jurkat cells; assay: eGFP mRNA transfection, overall statements on the four cell lines; type: cell-based, human; settings: formulated with co-lipid DOPE or DPyPE
# Experimental: as §1, §2, §3, §4
SMILES,Transfection efficiency (eGFP %) CaCO2 [2],Transfection efficiency (eGFP %) Jurkat [1],Transfection efficiency (eGFP %) THP-1 [3],Transfection efficiency (eGFP %) BJ [4],transfection activity (in words) [5],"GFP expression one day post-transfection, comparison of co-lipids ([2]; CaCo2 cells, co-lipid DPyPE versus DOPE, PaLiPE, DiLiPE, molar ratio 1:2 (FIG. 3))"
"CCCCCCCCCCCCCCC(CCCCCCCCCCCCCC)[n+]1ccn(C)c1.[Cl-] [Compound W4.3, 1-methyl-3-(nonacosan-15-yl)-1H-imidazol-3-ium chloride]",5-10%,0-1%,30-40%,50-60%,reduced transfection activity,–
"CCCCCCCCCCCCCCCCC(CCCCCCCCCCCCCCCC)CCC[n+]1ccn(C)c1 [Compound W29.5, 1-methyl-3-(4-hexadecylicosyl)-1H-imidazol-3-ium chloride]",–,10-15%,30-40%,–,without really affecting the transfection activity,–
"CCCCCCCCCCCCCCCCCCC(CCCCCCCCCC)[n+]1ccn(C)c1.[Cl-] (stereo not shown) [Compound W6.3, 1-methyl-3-(nonacosan-11-yl)-1H-imidazol-3-ium chloride]",5-10%,20-25%,30-40%,80-85%,–,–
"CCCCCCCCCCCCCCCCCCC(CCCCCCCCCCCCCCCCCC)n1cc[n+](C)c1.[Cl-] [MONI, 1-Methyl-3-(1-Octadecyl-Nonadecyl)-3H-Imidazol-1-ium chloride, reference compound]",5-10%,5-10%,30-40%,50-60%,–,–

# Second part, led by results:
Transfection efficiency (eGFP %) CaCO2 [2],SMILES,Transfection efficiency (eGFP %) Jurkat [1],Transfection efficiency (eGFP %) THP-1 [3],Transfection efficiency (eGFP %) BJ [4],transfection activity (in words) [5],"GFP expression one day post-transfection, comparison of co-lipids ([2]; CaCo2 cells, co-lipid DPyPE versus DOPE, PaLiPE, DiLiPE, molar ratio 1:2 (FIG. 3))"
45-55%,"CCCCCCCCCCCCCCCCCCC(CCCCC(CCCCCCCCCCCCCC)CCCCCCCCCCCCCC)[n+]1ccn(CCO)c1.[Cl-] (stereo not shown) [Compound W25.7, 1-(2-hydroxyethyl)-3-(24-tetradecyloctatriacontan-19-yl)-1H-imidazol-3-ium chloride]",25-35%,80-85%,90-95%,without really affecting the transfection activity,–
50-55%,"CCCCCCCCCCCCCCC(CCCCCCCCCCCCCC)CCCCC(CCCCCCCCCCCCCC)[n+]1ccn(CCO)c1.[Cl-] (stereo not shown) [Compound W26.7, 1-(2-hydroxyethyl)-3-(20-tetradecyltetratriacontan-15-yl)-1H-imidazol-3-ium chloride]",10-15%,70-80%,90-95%,without really affecting the transfection activity,–
40-45%,"CCCCCCCCCCCCCCCCCCC(CCCC(CCCCCCCCCCCCCC)CCCCCCCCCCCCCC)[n+]1ccn(C)c1.[Cl-] (stereo not shown) [Compound W28.7, 1-methyl-3-(15-tetradecylheptatriacontan-19-yl)-1H-imidazol-3-ium chloride]",15-25%,80-85%,90-95%,without really affecting the transfection activity,–
65-75%,"CCCCCCCC/C=C\CCCCCCCCC(CCCCC(CCCCCCCCCCCCCC)CCCCCCCCCCCCCC)[n+]1ccn(CC)c1.[Cl-] (stereo not shown) [Compound W27.7, 1-ethyl-3-(24-tetradecyloctatriacont-9-en-19-yl)-1H-imidazol-3-ium chloride]",5-10%,40-50%,90-95%,without really affecting the transfection activity,–
5-10%,"CCCCCCCCCCCCCCCCC(CCCCCCCCCCCCCCCC)[n+]1ccn(C)c1.[Cl-] [Compound W5.3, 1-methyl-3-(tritriacontan-17-yl)-1H-imidazol-3-ium chloride]",0-2%,50-60%,60-70%,reduced transfection activity,–
40-50%,"CCCCCCCCCCCCCCC(CCCCCCCCCCCCCC)CCCCC(CCCCCCCCCCCCCC)[n+]1ccn(C)c1.[Cl-] (stereo not shown) [Compound W9.7, 1-methyl-3-(20-tetradecyltetratriacontan-15-yl)-1H-imidazol-3-ium chloride]",10-15%,70-80%,90-95%,–,optimal
